Assay results: PubChem BioAssay (NCI)
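Cells were grown in 96-well plates and exposed to each compound for 48 hours at five concentrations; endpoints were interpolated linearly between bracketing concentrations, or set to the highest concentration if not reached. Abbreviation: GI50, concentration required for 50% inhibition of growth. TGI marks complete inhibition of growth.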

Experiments:
Experiment in all cases: DTP human tumour cell line panel, 48 h
NCI-H23 lung = tested on: NCI-H23 lung
BT-549 breast = tested on: BT-549 breast
COLO 205 colon = tested on: COLO 205 colon
MOLT-4 leukemia = tested on: MOLT-4 leukemia
SF-268 CNS = tested on: SF-268 CNS
OVCAR-5 ovarian = tested on: OVCAR-5 ovarian
UACC-257 melanoma = tested on: UACC-257 melanoma
RXF 393 renal = tested on: RXF 393 renal
SR leukemia = tested on: SR leukemia
786-0 renal = tested on: 786-0 renal
LOX IMVI melanoma = tested on: LOX IMVI melanoma
KM12 colon = tested on: KM12 colon
SK-MEL-28 melanoma = tested on: SK-MEL-28 melanoma
A498 renal = tested on: A498 renal
RPMI-8226 leukemia = tested on: RPMI-8226 leukemia
K-562 leukemia = tested on: K-562 leukemia
NCI-H522 lung = tested on: NCI-H522 lung
DU-145 prostate = tested on: DU-145 prostate
HL-60(TB) leukemia = tested on: HL-60(TB) leukemia
TK-10 renal = tested on: TK-10 renal
MDA-MB-435 = tested on: MDA-MB-435
SK-MEL-2 melanoma = tested on: SK-MEL-2 melanoma
HS 578T breast = tested on: HS 578T breast
MALME-3M melanoma = tested on: MALME-3M melanoma
ACHN renal = tested on: ACHN renal
NCI/ADR-RES ovarian = tested on: NCI/ADR-RES ovarian
MDA-MB-231 breast = tested on: MDA-MB-231 breast
UACC-62 melanoma = tested on: UACC-62 melanoma
SF-539 CNS = tested on: SF-539 CNS
OVCAR-8 ovarian = tested on: OVCAR-8 ovarian
SW-620 colon = tested on: SW-620 colon
SN12C renal = tested on: SN12C renal
HT29 colon = tested on: HT29 colon
NCI-H226 lung = tested on: NCI-H226 lung
NCI-H460 lung = tested on: NCI-H460 lung
OVCAR-4 ovarian = tested on: OVCAR-4 ovarian
M14 melanoma = tested on: M14 melanoma
SNB-75 CNS = tested on: SNB-75 CNS
HCT-116 colon = tested on: HCT-116 colon
HOP-92 NSCLC = tested on: HOP-92 NSCLC
CAKI-1 renal = tested on: CAKI-1 renal
CCRF-CEM leukemia = tested on: CCRF-CEM leukemia
MCF7 breast = tested on: MCF7 breast
OVCAR-3 ovarian = tested on: OVCAR-3 ovarian
HCT-15 colon = tested on: HCT-15 colon
SNB-19 CNS = tested on: SNB-19 CNS
HCC-2998 colon = tested on: HCC-2998 colon
HOP-62 NSCLC = tested on: HOP-62 NSCLC
U251 CNS = tested on: U251 CNS
T-47D breast = tested on: T-47D breast
PC-3 prostate = tested on: PC-3 prostate
IGROV1 ovarian = tested on: IGROV1 ovarian
SF-295 CNS = tested on: SF-295 CNS
SK-MEL-5 melanoma = tested on: SK-MEL-5 melanoma
A549 NSCLC = tested on: A549 NSCLC
SK-OV-3 ovarian = tested on: SK-OV-3 ovarian
UO-31 renal = tested on: UO-31 renal
EKVX NSCLC = tested on: EKVX NSCLC

SMILES: Cc1c2cnccc2c(C)c2c1c1cc(CO)ccc1n2C
- GI50 (NCI-H23 lung): 273 nM
- TGI (NCI-H23 lung): 1340 nM
- GI50 (BT-549 breast): 927 nM
- TGI (BT-549 breast): 2280 nM
- GI50 (COLO 205 colon): 258 nM
- TGI (COLO 205 colon): 1260 nM
- GI50 (MOLT-4 leukemia): 286 nM
- TGI (MOLT-4 leukemia): 2380 nM
- GI50 (SF-268 CNS): 268 nM
- TGI (SF-268 CNS): 1690 nM
- GI50 (OVCAR-5 ovarian): 244 nM
- TGI (OVCAR-5 ovarian): 1180 nM
- GI50 (UACC-257 melanoma): 292 nM
- TGI (UACC-257 melanoma): 1680 nM
- GI50 (RXF 393 renal): 209 nM
- TGI (RXF 393 renal): 1040 nM
- GI50 (SR leukemia): 75.2 nM
- GI50 (786-0 renal): 302 nM
- TGI (786-0 renal): 2660 nM
- GI50 (LOX IMVI melanoma): 255 nM
- TGI (LOX IMVI melanoma): 1210 nM
- GI50 (KM12 colon): 303 nM
- TGI (KM12 colon): 1820 nM
- GI50 (SK-MEL-28 melanoma): 384 nM
- TGI (SK-MEL-28 melanoma): 1560 nM
- GI50 (A498 renal): 30.5 nM
- TGI (A498 renal): 169 nM
- GI50 (RPMI-8226 leukemia): 260 nM
- TGI (RPMI-8226 leukemia): 1380 nM
- GI50 (K-562 leukemia): 264 nM
- TGI (K-562 leukemia): 1680 nM
- GI50 (NCI-H522 lung): 350 nM
- TGI (NCI-H522 lung): 1910 nM
- GI50 (DU-145 prostate): 288 nM
- TGI (DU-145 prostate): 1530 nM
- GI50 (HL-60(TB) leukemia): 408 nM
- TGI (HL-60(TB) leukemia): 2100 nM
- GI50 (TK-10 renal): 553 nM
- TGI (TK-10 renal): 4150 nM
- GI50 (MDA-MB-435): 349 nM
- TGI (MDA-MB-435): 1390 nM
- GI50 (SK-MEL-2 melanoma): 455 nM
- TGI (SK-MEL-2 melanoma): 2010 nM
- GI50 (HS 578T breast): 521 nM
- TGI (HS 578T breast): 3130 nM
- GI50 (MALME-3M melanoma): 294 nM
- TGI (MALME-3M melanoma): 1180 nM
- GI50 (ACHN renal): 66.5 nM
- TGI (ACHN renal): 1160 nM
- GI50 (NCI/ADR-RES ovarian): 187 nM
- TGI (NCI/ADR-RES ovarian): 1930 nM
- GI50 (MDA-MB-231 breast): 348 nM
- TGI (MDA-MB-231 breast): 1790 nM
- GI50 (UACC-62 melanoma): 232 nM
- TGI (UACC-62 melanoma): 1030 nM
- GI50 (SF-539 CNS): 343 nM
- TGI (SF-539 CNS): 1540 nM
- GI50 (OVCAR-8 ovarian): 178 nM
- TGI (OVCAR-8 ovarian): 2450 nM
- GI50 (SW-620 colon): 116 nM
- TGI (SW-620 colon): 1390 nM
- GI50 (SN12C renal): 187 nM
- TGI (SN12C renal): 1650 nM
- GI50 (HT29 colon): 257 nM
- TGI (HT29 colon): 2730 nM
- GI50 (NCI-H226 lung): 109 nM
- TGI (NCI-H226 lung): 570 nM
- GI50 (NCI-H460 lung): 149 nM
- TGI (NCI-H460 lung): 571 nM
- GI50 (OVCAR-4 ovarian): 299 nM
- TGI (OVCAR-4 ovarian): 1200 nM
- GI50 (M14 melanoma): 298 nM
- TGI (M14 melanoma): 1220 nM
- GI50 (SNB-75 CNS): 434 nM
- TGI (SNB-75 CNS): 1700 nM
- GI50 (HCT-116 colon): 45.4 nM
- TGI (HCT-116 colon): 651 nM
- GI50 (HOP-92 NSCLC): 382 nM
- TGI (HOP-92 NSCLC): 2630 nM
- GI50 (CAKI-1 renal): 163 nM
- TGI (CAKI-1 renal): 1080 nM
- GI50 (CCRF-CEM leukemia): 328 nM
- TGI (CCRF-CEM leukemia): 2610 nM
- GI50 (MCF7 breast): 203 nM
- TGI (MCF7 breast): 1370 nM
- GI50 (OVCAR-3 ovarian): 295 nM
- TGI (OVCAR-3 ovarian): 1420 nM
- GI50 (HCT-15 colon): 217 nM
- TGI (HCT-15 colon): 1310 nM
- GI50 (SNB-19 CNS): 299 nM
- TGI (SNB-19 CNS): 2370 nM
- GI50 (HCC-2998 colon): 465 nM
- TGI (HCC-2998 colon): 1930 nM
- GI50 (HOP-62 NSCLC): 211 nM
- TGI (HOP-62 NSCLC): 2330 nM
- GI50 (U251 CNS): 298 nM
- TGI (U251 CNS): 1630 nM
- GI50 (T-47D breast): 275 nM
- TGI (T-47D breast): 3140 nM
- GI50 (PC-3 prostate): 367 nM
- TGI (PC-3 prostate): 2140 nM
- GI50 (IGROV1 ovarian): 130 nM
- TGI (IGROV1 ovarian): 1220 nM
- GI50 (SF-295 CNS): 316 nM
- TGI (SF-295 CNS): 1660 nM
- GI50 (SK-MEL-5 melanoma): 425 nM
- TGI (SK-MEL-5 melanoma): 1580 nM
- GI50 (A549 NSCLC): 330 nM
- TGI (A549 NSCLC): 2070 nM
- GI50 (SK-OV-3 ovarian): 324 nM
- TGI (SK-OV-3 ovarian): 1350 nM
- GI50 (UO-31 renal): 255 nM
- TGI (UO-31 renal): 1910 nM
- GI50 (EKVX NSCLC): 325 nM
- TGI (EKVX NSCLC): 1290 nM
